Laboratory results as given in patent US20240350402A1, “TOPICAL DRUG TREATMENT TO PREVENT OR REDUCE CORNEAL SCARRING” (The Cleveland Clinic Foundation, priority 2021, published 2024).

Experiments:
[1] = test system: rabbit corneas after alkali burn injury; assay: Alkali burn model: slit lamp opacity area and intensity (ImageJ); format: in vivo; settings: alkali burn 1N NaOH; topical six times per day, one month; 0.8 mg/ml losartan, 1% prednisolone acetate
Protocol: All animal treatments and care were approved by the Institutional Animal Care and Use Committee (IACUC) at the Cleveland Clinic Foundation (Cleveland, OH, USA) and the Animal Care and Use Review Office of the Department of the Army (Fort Detrick, MD). All rabbits were treated in accordance with the tenets of the ARVO Statement for the Use of Animals in Ophthalmic and Vision Research. Sixteen 10- to 15-week-old female New Zealand White rabbits weighing 2.5 to 3.0 kg each were included in this example. […]
At one month after sodium hydroxide exposure and treatments, with the rabbits under ketamine-xylazine general anesthesia, the eyes were dilated with two drops of 1% tropicamide (Akom Co., Lake Forest, IL) for thirty minutes. […] For each study eye, the total area of opacity was determined by outlining the opacity with the freehand selection tool using ImageJ 1.53a analysis software calibrated to mm^2. The “raw internal density” in pixels for the opacified area in each cornea was also determined using ImageJ. […]

[2] = test system: corneal neovascularization (CNV); assay: Alkali burn model: central corneal neovascularization (corneal angiography); format: in vivo, rabbit; settings: four corneas in each group, topical six times per day, one month
Protocol: (§1) Alkali injuries were produced in one eye of rabbits with previously published methods^10 using 1N sodium hydroxide (Sigma, St. Louis, MO) in balanced salt solution (BSS, 0.64% sodium chloride, 0.075% potassium chloride, 0.048% calcium chloride dihydrate, […] magnesium chloride hexahydrate, 0.39% sodium acetate trihydrate, 0.17% sodium citrate dihydrate, pH 7.5, Alcon, H. Worth, TX) and a 5 mm diameter circular Whatman No. 1 filter paper (Cat #1001-6508, Fisher Scientific) wetted with 100 μl of 1N NaOH solution. Following the alkali burn injury, the cornea was irrigated profusely with BSS. Each injured cornea also received one drop of ciprofloxacin (Alcon, Ft. Worth, TX, USA) ten minutes after surgery and four times a day for one week and at least 15 minutes apart from the study medications.
Worth TX), at least 5 minutes apart, or 4) 50 μl of BSS.
All corneas had fluorescent angiography at the peak of dye passage in the cornea immediately after injection of 1.5 ml of 10% sodium fluorescein (McKesson, Irvine, TX) in the central ear vein with the slit lamp system and digital camera system using a “barrier filter” that only transmitted 520-530 nm, the peak of fluorescein emission, with broad illumination of the cornea, as previously described.^11

collagen type IV = assay: Alkali burn model: IHC collagen type IV intensity in anterior and posterior stroma (ImageJ); format: in vivo, rabbit; settings: one month
Protocol: Worth, TX) and a 5 mm diameter circular Whatman No. 1 filter paper (Cat #1001-6508, Fisher Scientific) wetted with 100 μl of 1N NaOH solution. Following the alkali burn injury, the cornea was irrigated profusely with BSS. Each injured cornea also received one drop of ciprofloxacin (Alcon, Ft. Worth, TX, USA) ten minutes after surgery and four times a day for one week and at least 15 minutes apart from the study medications. […] Worth TX), at least 5 minutes apart, or 4) 50 μl of BSS. Multiplex immunohistochemistry (IHC) was performed using previously described methods^8 and primary antibodies (Table 7) confirmed by western blotting and IHC to recognize rabbit antigens or isotypic control antibodies (Thermo Fisher Scientific, Waltham, MA), and secondary fluorescent tagged antibodies (Table 7). The collagen type IV antibody (Cat. #AB769, Millipore, Temecula CA) was raised against purified human and bovine collagen type IV that had been affinity purified with human and bovine collagen type IV crosslinked to agarose and cross-absorbed by the manufacturer with human and bovine collagens type I, II, III, V and VI to eliminate cross-reactivity. This collagen type IV antibody was shown previously to bind rabbit collagen IV in IHC,^8,9 and recognizes the alpha-1/alpha-2 chains but not the alpha-3 to alpha-6 chains. The keratocan antibody is raised against peptide […]-OH (SEQ ID NO:1). This marker was used to identify keratocytes in situ. […] All corneas in each group had IHC for collagen type IV. Images from each cornea were converted to uniform 300 DPI, 875×568 pixel, files. […] The staining intensity within each box was determined with the analyze histogram function and the mean of three boxes was the intensity value in the anterior or posterior stroma for that cornea.

[3] = test system: α-SMA-positive myofibroblasts; assay: Alkali burn model: IHC α-SMA-positive stromal area and intensity (ImageJ); format: in vivo, rabbit; settings: topical six times per day, one month
Protocol: as §1
Worth TX), at least 5 minutes apart, or 4) 50 μl of BSS. […]
The area of the α-SMA-positive stroma in mm^2 and the total α-SMA opacity in pixels were quantitated using standardized images obtained with a 10× objective on a Leica DM6B upright microscope equipped with an automated stage and Leica 7000 T camera using the LAS X software (Leica Microsystems, GmbH, Wetzlar, Germany). The means of three central corneal sections were analyzed from each cornea to provide the area of α-SMA-positive stroma and the total α-SMA opacity. The area of α-SMA-positive stroma in mm^2 for each cornea was determined from full diameter and thickness central corneal section images (all converted to 300 DPI, 885 width×500 height, files with identical +50% brightness increase in Photoshop for all images) with the ImageJ 1.53a analysis software using the freehand selection tool to delineate the area(s) of α-SMA-positive staining. […] In these same sections for each cornea, the total α-SMA-positive intensity in pixels was also determined with ImageJ, similarly by using the summation if separate α-SMA-positive areas were present. […]

CC(=O)OCC(=O)[C@@]1(O)CC[C@H]2[C@@H]3CCC4=CC(=O)C=C[C@]4(C)[C@H]3[C@@H](O)C[C@@]21C [Prednisolone acetate, prednisolone acetate]
total opacity intensity in pixels (ImageJ) vs BSS vehicle group [1]: did not reach statistical significance
corneas in which central corneal neovascularization developed [2]: one
mean intensity units of collagen type IV in the anterior stroma compared to vehicle treatment (collagen type IV): trend towards a decrease
localization of α-SMA-positive myofibroblasts in the stroma [3]: more variable
